Assay [1] can be described thus: Antimicrobial Activity Assay: whole-cell antimicrobial activity by broth microdilution (CLSI M7-A7), MIC. As to conditions: against a strain of at least one of the organisms listed; tested in at least one exemplified salt or free base form. Type of assay: cell-based, Gram-positive and Gram-negative organisms. The procedure: Whole-cell antimicrobial activity was determined by broth microdilution using the Clinical and Laboratory Standards Institute (CLSI) recommended procedure, Document M7-A7, “Methods for Dilution Susceptibility Tests for Bacteria that Grow Aerobically”. The compounds were tested in serial two-fold dilutions ranging from 0.016 to 16 mcg/ml.
The minimum inhibitory concentration (MIC) was determined as the lowest concentration of compound that inhibited visible growth. A mirror reader was used to assist in determining the MIC endpoint.
Compounds were evaluated against Gram-positive organisms, selected from Staphylococcus aureus, Streptococcus pneumoniae, Streptococcus pyogenes, Enterococcus faecalis and Enterococcus faecium.
In addition, compounds were evaluated against Gram-negative organisms selected from Haemophilus influenzae, Moraxella catarrhalis, Escherichia coli, Pseudomonas aeruginosa, Proteus mirabilis, Enterobacter cloacae, Enterobacter aerogenes, Klebsiella pneumoniae and Stenotrophomonas maltophilia.
A general note: Broth dilution looks for growth in wells or tubes with falling amounts of substance.

The subject of assay [2] is Mycobacterium tuberculosis H37Rv. Kind of assay: Mycobacterium tuberculosis H37Rv Inhibition Assay (resazurin, MIC). Format: cell-based. The note with it: ATCC 25618 / H37Rv, 144 h, read-out: MIC value, H37Rv strain (ATCC25618), Middlebrook 7H9+ADC, six days at 37° C., resazurin fluorescence after 48 hours. For orientation: Alamar Blue is a resazurin reagent that responds to reducing activity.

The structures appear in SMILES notation. Structures can show the parent of a compound that is named as a salt. Some results are limits rather than exact numbers.

Here are results for five compounds from patent US8389524B2, “Tricyclic nitrogen containing compounds as antibacterial agents” (Glaxo Group Limited, priority 2007, dated 2013).

The MIC is the lowest concentration found to suppress growth.

Consider `O=c1ccc2ccc(=O)n3c2n1C[C@H]3CN1CCC(NCc2cc3c(cn2)COC3)CC1` [Example 9, (1R)-1-({4-[(1,3-Dihydrofuro[3,4-c]pyridin-6-ylmethyl)amino]-1-piperidinyl}methyl)-1,2-dihydro-4H,1H-imidazo[1,2,3-ij]-1,8-naphthyridine-4,9-dione hydrochloride], for which the MIC in assay [1] is not above 4 µg/mL. As for `O=c1cnc2ccc(=O)n3c2n1C[C@H]3CN1CCC(NCc2ccc3c(c2)OCCO3)CC1` [Example 44, (1R)-1-({4-[(2,3-Dihydro-1,4-benzodioxin-6-ylmethyl)amino]-1-piperidinyl}methyl)-1,2-dihydro-3H,8H-2a,5,8a-triazaacenaphthylene-3,8-dione hydrochloride], the MIC in assay [2] was less than 2 µg/mL.

As to `O=c1ccc2ccc(=O)n3c2n1C[C@H]3CN1CCC(NCc2nc3cccc(F)c3[nH]2)CC1` [Example 46, (1R)-1-[(4-{[(4-Fluoro-1H-benzimidazol-2-yl)methyl]amino}-1-piperidinyl)methyl]-1,2-dihydro-4H,9H-imidazo[1,2,3-ij]-1,8-naphthyridine-4,9-dione dihydrochloride], the MIC in assay [2] is less than 2 µg/mL. As to `O=c1ccc2ccc(=O)n3c2n1C[C@H]3CN1CCC(NCc2ccc3c(c2)OCCC3)CC1` [Example 50, (1R)-1-({4-[(3,4-Dihydro-2H-chromen-7-ylmethyl)amino]-1-piperidinyl}methyl)-1,2-dihydro-4H,9H-imidazo[1,2,3-ij]-1,8-naphthyridine-4,9-dione hydrochloride], in assay [2], the MIC is less than 2 µg/mL. On the same count and under the same terms, the result for `N#Cc1cc(CNC2CCN(C[C@@H]3Cn4c(=O)cnc5ccc(=O)n3c54)CC2)cc2c1OCCO2` [Example 56, 7-{[(1-{[(1R)-3,8-Dioxo-1,2-dihydro-3H,8H-2a,5,8a-triazaacenaphthylen-1-yl]methyl}-4-piperidinyl)amino]methyl}-2,3-dihydro-1,4-benzodioxin-5-carbonitrile hydrochloride] reads less than 2 µg/mL.
